Measurements: patent US20260092054A1, “FUSED RING COMPOUND AND PHARMACEUTICAL CONTAINING SAME” (KAKEN PHARMACEUTICAL CO., LTD., priority 2022, published 2026)

Assays:
human STAT6 = assay: Human STAT6 dependent reporter activity (IL-4 stimulated STAT6 reporter assay using STAT6-HEK293 cells); type: cell-based; conditions: Homo sapiens, IL-4 stimulation, luciferase activity, read-out: Inhibition rate (%); for inhibition at 0.1 µM: compound 0.1 μmol/L; for inhibition at 1 µM: compound 1 μmol/L
human STAT6/pIL-4Rα = molecular target: T1, human STAT6/pIL-4Rα (Homo sapiens, UniProt P42226); assay: Binding inhibitory activity between human STAT6/pIL-4Rα by fluorescence polarization method; conditions: rhSTAT6 (123-658) / FAM-pIL-4Rα peptide
T1 construct: histidine tag
T1 sequence (P42226 123-658): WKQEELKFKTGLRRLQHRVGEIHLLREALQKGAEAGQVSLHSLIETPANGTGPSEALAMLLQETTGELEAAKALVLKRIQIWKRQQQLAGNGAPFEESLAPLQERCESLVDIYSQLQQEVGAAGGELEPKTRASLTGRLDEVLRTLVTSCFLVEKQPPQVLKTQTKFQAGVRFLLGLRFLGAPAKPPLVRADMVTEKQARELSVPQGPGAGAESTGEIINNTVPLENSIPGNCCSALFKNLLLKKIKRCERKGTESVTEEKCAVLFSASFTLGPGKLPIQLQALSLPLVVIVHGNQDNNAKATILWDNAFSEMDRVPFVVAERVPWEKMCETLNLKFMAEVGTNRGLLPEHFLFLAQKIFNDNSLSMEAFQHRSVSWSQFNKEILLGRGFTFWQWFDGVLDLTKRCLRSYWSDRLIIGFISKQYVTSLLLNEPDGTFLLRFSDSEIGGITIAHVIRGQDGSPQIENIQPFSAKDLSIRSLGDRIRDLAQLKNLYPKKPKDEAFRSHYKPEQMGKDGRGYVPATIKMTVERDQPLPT
Outline: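 His-tagged human STAT6 (residues 123–658, E. coli-expressed) was preincubated with compound for 30 min at RT in the dark, in buffer e.g. 50 mM NaCl, 10 mM HEPES pH 7.0, 1 mM DTT, 1 mM EDTA, 0.01% NP-40. FAM-pIL-4Rα peptide was then added for 30 min. Fluorescence polarisation was read at 485/535 nm, with IC50 interpolated linearly between two points flanking 50%.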

| SMILES | inhibition at 0.1 µM (human STAT6) [%] | inhibition at 1 µM (human STAT6) [%] | IC50 (human STAT6/pIL-4Rα) [nM] |
| --- | --- | --- | --- |
| CCn1c(-c2ccc(-n3ncn(C)c3=O)cc2)cc2ccnc(C(=O)Nc3ccc(F)c(C(N)=O)c3)c21 [Ex. 144] | 48 | 99 | 370 |
| CCn1c(-c2ccc(-n3c(C)nn(C)c3=O)nc2)cc2cccc(C(=O)Nc3cccc(C(N)=O)c3F)c21 [Ex. 145] | 53 | 97 | 280 |
| CCn1c(-c2ccc(N3CCCC3=O)cc2)cc2cc(C(F)(F)F)cc(C(=O)Nc3ccc(F)c(C(N)=O)c3)c21 [Ex. 146] | 55 | 87 | 750 |
| CCn1c(-c2ccc(N3C(=O)C(C)CC3C)cc2)cc2ccnc(C(=O)Nc3ccc(F)c(C(=O)NCC#N)c3)c21 (stereo not drawn) [Ex. 147] | 48 | 91 | 780 |
| CCn1c(-c2ccc(C(=O)N(C)C)cc2)cc2ccnc(C(=O)Nc3ccc(F)c(C(=O)NCC#N)c3)c21 [Ex. 148] | 86 | – | 330 |
| CCn1c(-c2ccc(NC(C)=O)cc2)cc2ccnc(C(=O)Nc3ccc(F)c(C(=O)NCC#N)c3)c21 [Ex. 149] | 25 | 84 | 330 |
| CCn1c(-c2ccc(N3CCOCC3=O)cc2)cc2ccnc(C(=O)Nc3ccc(F)c(C(=O)NCC#N)c3)c21 [Ex. 150] | 38 | 89 | 240 |
| CCn1c(-c2ccc(-n3c(C)nn(C)c3=O)nc2)cc2cccc(C(=O)Nc3ccc(F)c(C(N)=O)c3)c21 [Ex. 151] | 26 | 77 | 610 |
| CCn1c(-c2ccc(-n3c(C)nn(C)c3=O)cc2C(F)(F)F)cc2cc(C(F)(F)F)cc(C(=O)Nc3ccc(F)c(C(N)=O)c3)c21 [Ex. 152] | 38 | 84 | 650 |
| CCn1c(-c2ccc(C(=O)N(C)C)cc2)cc2cc(C(F)(F)F)cc(C(=O)Nc3ccc(F)c(C(N)=O)c3)c21 [Ex. 153] | 25 | 93 | 940 |
| CCn1c(-c2ccc(-n3c(C(F)F)nn(C)c3=O)cc2)cc2cc(C(F)(F)F)cc(C(=O)Nc3ccc(F)c(C(N)=O)c3)c21 [Ex. 154] | 52 | 99 | 280 |
| CCc1nn(C)c(=O)n1-c1ccc(-c2cc3cc(C(F)(F)F)cc(C(=O)Nc4ccc(F)c(C(N)=O)c4)c3n2CC)cc1 [Ex. 155] | 69 | 100 | 380 |
| CCn1c(-c2ccc(-n3ncn(C)c3=O)cc2)cc2cccc(C(=O)Nc3ccc(F)c(C(N)=O)c3)c21 [Ex. 156] | 46 | 99 | 400 |
| CCn1c(-c2ccc(N3C(=O)C(C)CC3C)nc2)cc2cc(C(F)(F)F)cc(C(=O)Nc3ccc(F)c(C(N)=O)c3)c21 (stereo not drawn) [Ex. 157] | 62 | – | 310 |
| CCn1c(-c2ccc(N3C(=O)C(C)CC3C)cc2)cc2cccc(C(=O)Nc3ccc(F)c(C(N)=O)c3)c21 (stereo not drawn) [Ex. 158] | 44 | 96 | 730 |
| CCn1c(-c2ccc(N3C(=O)C(C)CC3C)cc2)cc2cc(C(F)(F)F)cc(C(=O)Nc3cccc(C(N)=O)c3)c21 (stereo not drawn) [Ex. 159] | 50 | 95 | 530 |
| CCn1c(-c2ccc(N3C(=O)C(C)CC3C)cc2)cc2cc(C(F)(F)F)cc(C(=O)Nc3ccc(F)c(C(N)=O)c3)c21 (stereo not drawn) [Ex. 160] | 93 | 100 | 410 |
| CCn1c(-c2ccc(N3C(=O)C(C)CC3C)cc2)cc2cc(C(F)(F)F)cc(C(=O)Nc3cccc(C(N)=O)c3F)c21 (stereo not drawn) [Ex. 161] | 86 | 99 | 870 |
| COCCn1c(-c2ccc(-n3c(C)nn(C)c3=O)cc2)cc2cc(C(F)(F)F)cc(C(=O)Nc3cccc(C(=O)Nc4cc[nH]n4)c3)c21 [Ex. 163] | 60 | 99 | 270 |
| CCn1c(-c2ccc(-n3c(C)nn(C)c3=O)cc2)cc2ccnc(C(=O)Nc3cccc(C(=O)Nc4cc(C)cn(C)c4=O)c3)c21 [Ex. 165] | 86 | 100 | 200 |
| CCn1c(-c2ccc(-n3c(C)nn(C)c3=O)cc2)cc2ccnc(C(=O)Nc3cccc(C(=O)Nc4cn(C)c(=O)n(C)c4=O)c3)c21 [Ex. 166] | 76 | 99 | 350 |

| SMILES | inhibition at 0.1 µM (human STAT6) [%] | inhibition at 1 µM (human STAT6) [%] | IC50 (human STAT6/pIL-4Rα) [nM] |
| --- | --- | --- | --- |
| CCn1c(-c2ccc(-n3c(C)nn(C)c3=O)cc2)cc2ccnc(C(=O)Nc3cccc(C(=O)Nc4cncn(C)c4=O)c3)c21 [Ex. 167] | 90 | 99 | 240 |
| CCn1c(-c2ccc(-n3c(C)nn(C)c3=O)cc2)cc2ccnc(C(=O)Nc3ccc(F)c(C(=O)NCC#N)c3)c21 [Ex. 168] | 60 | 99 | 350 |
| CCn1c(-c2ccc(-n3c(C)nn(C)c3=O)cc2)cc2ccnc(C(=O)Nc3cccc(C(=O)Nc4cccn(C)c4=O)c3)c21 [Ex. 169] | 81 | 99 | 400 |
| CCn1c(-c2ccc(-n3c(C)nn(C)c3=O)cc2)cc2cc(C(F)(F)F)cc(C(=O)Nc3cccc(C(=O)NCC(=O)N(C)C)c3)c21 [Ex. 170] | 49 | 99 | 400 |
| COCCn1c(-c2ccc(-n3c(C)nn(C)c3=O)cc2)cc2cc(C(F)(F)F)cc(C(=O)Nc3cccc(C(N)=O)n3)c21 [Ex. 171] | 29 | 95 | 330 |
| CNC(=O)c1cccc(NC(=O)c2cc(C(F)(F)F)cc3cc(-c4ccc(-n5c(C)nn(C)c5=O)cc4)n(CCOC)c23)n1 [Ex. 172] | 17 | 83 | 380 |
| COCCn1c(-c2ccc(-n3c(C)nn(C)c3=O)cc2)cc2cc(C(F)(F)F)cc(C(=O)Nc3cccc(C(=O)Nc4cccc(OC)n4)c3)c21 [Ex. 173] | 43 | 100 | 340 |
| COCCn1c(-c2ccc(-n3c(C)nn(C)c3=O)cc2)cc2cc(C(F)(F)F)cc(C(=O)Nc3cccc(C(=O)Nc4cccc(COC)n4)c3)c21 [Ex. 174] | 70 | – | 680 |
| COCCn1c(-c2ccc(-n3c(C)nn(C)c3=O)cc2)cc2cc(C(F)(F)F)cc(C(=O)Nc3cccc(C(=O)Nc4cccn(C)c4=O)c3)c21 [Ex. 175] | 65 | – | 400 |
| COCCn1c(-c2ccc(-n3c(C)nn(C)c3=O)cc2)cc2cc(C(F)(F)F)cc(C(=O)Nc3cccc(C(=O)Nc4cc(Cl)n(C)n4)c3)c21 [Ex. 176] | 93 | – | 280 |
| CCn1ccc(NC(=O)c2cccc(NC(=O)c3cc(C(F)(F)F)cc4cc(-c5ccc(-n6c(C)nn(C)c6=O)cc5)n(CCOC)c34)c2)n1 [Ex. 177] | 99 | – | 300 |
| COCCn1c(-c2ccc(-n3c(C)nn(C)c3=O)cc2)cc2cc(C(F)(F)F)cc(C(=O)Nc3cccc(C(=O)Nc4ccn(C5CC5)n4)c3)c21 [Ex. 178] | 100 | – | 280 |
| COCCn1c(-c2ccc(-n3c(C)nn(C)c3=O)cc2)cc2cc(C(F)(F)F)cc(C(=O)Nc3cccc(C(=O)Nc4cc(C#N)n(C)n4)c3)c21 [Ex. 179] | 93 | – | 320 |
| COCCn1c(-c2ccc(-n3c(C)nn(C)c3=O)cc2)cc2cc(C(F)(F)F)cc(C(=O)Nc3cccc(C(=O)Nc4ccn(CC5CC5)n4)c3)c21 [Ex. 180] | 100 | – | 300 |
| COCCn1c(-c2ccc(-n3c(C)nn(C)c3=O)cc2)cc2cc(C(F)(F)F)cc(C(=O)Nc3cccc(C(=O)Nc4ccn(CC(=O)OC)n4)c3)c21 [Ex. 181] | 94 | – | 310 |
| COCCn1c(-c2ccc(-n3c(C)nn(C)c3=O)cc2)cc2cc(C(F)(F)F)cc(C(=O)Nc3cccc(C(=O)Nc4ccc(C)nn4)c3)c21 [Ex. 182] | 52 | 100 | 350 |
| COCCn1c(-c2ccc(-n3c(C)nn(C)c3=O)cc2)cc2cc(C(F)(F)F)cc(C(=O)Nc3cccc(C(=O)Nc4ccn(CC#N)n4)c3)c21 [Ex. 183] | 86 | – | 230 |
| CCn1c(-c2ccc(-n3c(C)nn(C)c3=O)cc2)cc2ccnc(C(=O)Nc3ccc(F)c(C(=O)Nc4cc[nH]n4)c3)c21 [Ex. 185] | 34 | 96 | 470 |
| CCn1c(-c2ccc(-n3c(C)nn(C)c3=O)cc2)cc2ccnc(C(=O)Nc3cccc(C(=O)Nc4cccn(C(F)F)c4=O)c3)c21 [Ex. 186] | 43 | 96 | 330 |
| CCn1c(-c2ccc(-n3c(C)nn(C)c3=O)cc2)cc2ccnc(C(=O)Nc3cccc(C(=O)Nc4ccc(C)n(C)c4=O)c3)c21 [Ex. 187] | 88 | – | 340 |
